Assay [1] has as its target GABAB receptor (Homo sapiens, UniProt Q9UBS5). Put plainly: GABAB receptor agonist or partial agonist activity by binding, electrophysiology, cAMP and/or Ca2+ assay methods (Examples 83-86). It counts as cell-based. Summed up:
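Binding: rat cortex membranes in 50 mM Tris pH 7.4 with 100 μM isoguvacine were preincubated 10 min at RT with compound, then radiolabeled CGP54626 (1-10 nM) was added; filtered and scintillation-counted. cAMP: GABAB R1a2 HEK cells, 1 h RT with 100 μM forskolin, chemiluminescence.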

Assay [2] addresses T1, GABAB receptor (Rattus norvegicus, UniProt Q9Z0U4).
T1 construct: from tissue; host or cells: rat cerebral cortex membranes
Put plainly: [3H]CGP54626 rat brain GABAB receptor binding assay. Conditions: [3H]CGP54626 rat brain binding assay. As to the method:
An assay using rat cerebral cortex membranes was used to determine the affinity of GABAB receptor ligands for the GABAB receptor.
An assay buffer of 50 mM Tris pH 7.4 was prepared with 100 μM of isoguvacine, to block GABAA interactions. The assay buffer with isoguvacine was used for dilution of membranes, compounds, and radiolabel.
Rat cerebral cortex membranes were diluted in assay buffer at 1 mg/mL and aliquoted into a 96-well plate at 900 μL/well. Buffer or test compound were added at 20-times final concentration in the buffer at 50 μL/well. Membranes and test compounds or buffer were incubated for 10 min. at room temperature. Radiolableled [S—(R*,R*)]-[3-[[1-(3,4-dichlorophenyl)ethyl]amino]-2-hydroxypropyl](cyclohexylmethyl) phosphinic acid (CGP54626) was then added at 50 μL/well in the buffer at 1-10 nM concentration in 50 μl. The mixture was incubated for 15 min. at room temperature. The assay mixture was filtered using Brandell filtration apparatus and GFB filters, washed twice with 3 mL of 4° C., 50 mM Tris pH 7.4, buffer without isoguvacine. The filters were then dried at room temperature and the dried filters punched out and placed in individual vials. Three (3) mL of scintillation fluid was added to each vial and the radiolabel counted on the scintillation counter. The inverse amount of radiolabel was indicative of binding of a test compound to the GABAB receptor.

Chain of GABAB receptor (Homo sapiens, UniProt Q9UBS5) (Q9UBS5 20-961): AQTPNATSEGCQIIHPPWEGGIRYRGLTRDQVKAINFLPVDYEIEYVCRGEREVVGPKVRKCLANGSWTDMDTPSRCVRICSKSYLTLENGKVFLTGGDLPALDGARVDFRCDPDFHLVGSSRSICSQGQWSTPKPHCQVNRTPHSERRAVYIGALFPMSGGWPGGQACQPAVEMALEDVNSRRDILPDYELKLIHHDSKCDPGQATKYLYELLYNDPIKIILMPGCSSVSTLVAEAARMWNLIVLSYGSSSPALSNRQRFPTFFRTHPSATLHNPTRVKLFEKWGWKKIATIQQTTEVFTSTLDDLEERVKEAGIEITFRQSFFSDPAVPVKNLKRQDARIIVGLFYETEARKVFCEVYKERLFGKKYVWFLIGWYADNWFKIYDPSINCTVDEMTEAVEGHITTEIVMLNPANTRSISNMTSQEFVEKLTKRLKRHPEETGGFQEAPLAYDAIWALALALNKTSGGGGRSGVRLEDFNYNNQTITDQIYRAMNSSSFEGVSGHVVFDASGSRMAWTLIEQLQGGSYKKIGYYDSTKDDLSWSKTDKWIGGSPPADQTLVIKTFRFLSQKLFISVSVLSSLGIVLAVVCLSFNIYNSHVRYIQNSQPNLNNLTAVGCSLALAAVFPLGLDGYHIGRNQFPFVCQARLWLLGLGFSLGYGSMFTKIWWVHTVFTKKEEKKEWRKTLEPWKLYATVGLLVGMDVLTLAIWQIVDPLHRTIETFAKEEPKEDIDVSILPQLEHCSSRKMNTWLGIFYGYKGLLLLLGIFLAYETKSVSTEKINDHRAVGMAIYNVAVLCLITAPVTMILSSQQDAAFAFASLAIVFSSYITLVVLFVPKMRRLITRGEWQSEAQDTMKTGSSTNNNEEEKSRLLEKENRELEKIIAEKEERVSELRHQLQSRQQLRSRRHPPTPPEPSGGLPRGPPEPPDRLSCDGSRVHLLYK
Chain of GABAB receptor (Homo sapiens, UniProt Q9UBS5) (O75899 42-941 partner): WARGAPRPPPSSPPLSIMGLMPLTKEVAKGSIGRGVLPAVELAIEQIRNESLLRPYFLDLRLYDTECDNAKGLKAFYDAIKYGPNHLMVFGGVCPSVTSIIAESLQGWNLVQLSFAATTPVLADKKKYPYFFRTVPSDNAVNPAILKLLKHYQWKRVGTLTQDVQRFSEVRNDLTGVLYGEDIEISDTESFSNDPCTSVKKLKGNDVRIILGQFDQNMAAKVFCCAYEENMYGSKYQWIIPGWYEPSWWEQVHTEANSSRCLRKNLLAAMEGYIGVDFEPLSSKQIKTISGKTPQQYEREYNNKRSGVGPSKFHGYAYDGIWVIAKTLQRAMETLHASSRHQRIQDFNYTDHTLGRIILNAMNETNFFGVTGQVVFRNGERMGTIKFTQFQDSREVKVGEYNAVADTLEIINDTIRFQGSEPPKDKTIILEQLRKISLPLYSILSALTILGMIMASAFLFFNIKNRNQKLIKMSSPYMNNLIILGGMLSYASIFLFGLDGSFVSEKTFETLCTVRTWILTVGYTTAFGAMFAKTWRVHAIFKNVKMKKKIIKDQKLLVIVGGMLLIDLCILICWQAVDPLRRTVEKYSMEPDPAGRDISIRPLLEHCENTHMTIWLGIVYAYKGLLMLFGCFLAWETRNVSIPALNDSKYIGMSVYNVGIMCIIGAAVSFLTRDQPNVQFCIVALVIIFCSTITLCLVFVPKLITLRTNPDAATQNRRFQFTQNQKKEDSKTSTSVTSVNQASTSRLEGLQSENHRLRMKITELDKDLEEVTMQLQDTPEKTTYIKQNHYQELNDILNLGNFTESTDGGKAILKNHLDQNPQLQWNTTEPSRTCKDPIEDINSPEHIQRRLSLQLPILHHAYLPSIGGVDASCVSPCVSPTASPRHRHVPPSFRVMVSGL
T1 sequence (Q9Z0U4 20-960): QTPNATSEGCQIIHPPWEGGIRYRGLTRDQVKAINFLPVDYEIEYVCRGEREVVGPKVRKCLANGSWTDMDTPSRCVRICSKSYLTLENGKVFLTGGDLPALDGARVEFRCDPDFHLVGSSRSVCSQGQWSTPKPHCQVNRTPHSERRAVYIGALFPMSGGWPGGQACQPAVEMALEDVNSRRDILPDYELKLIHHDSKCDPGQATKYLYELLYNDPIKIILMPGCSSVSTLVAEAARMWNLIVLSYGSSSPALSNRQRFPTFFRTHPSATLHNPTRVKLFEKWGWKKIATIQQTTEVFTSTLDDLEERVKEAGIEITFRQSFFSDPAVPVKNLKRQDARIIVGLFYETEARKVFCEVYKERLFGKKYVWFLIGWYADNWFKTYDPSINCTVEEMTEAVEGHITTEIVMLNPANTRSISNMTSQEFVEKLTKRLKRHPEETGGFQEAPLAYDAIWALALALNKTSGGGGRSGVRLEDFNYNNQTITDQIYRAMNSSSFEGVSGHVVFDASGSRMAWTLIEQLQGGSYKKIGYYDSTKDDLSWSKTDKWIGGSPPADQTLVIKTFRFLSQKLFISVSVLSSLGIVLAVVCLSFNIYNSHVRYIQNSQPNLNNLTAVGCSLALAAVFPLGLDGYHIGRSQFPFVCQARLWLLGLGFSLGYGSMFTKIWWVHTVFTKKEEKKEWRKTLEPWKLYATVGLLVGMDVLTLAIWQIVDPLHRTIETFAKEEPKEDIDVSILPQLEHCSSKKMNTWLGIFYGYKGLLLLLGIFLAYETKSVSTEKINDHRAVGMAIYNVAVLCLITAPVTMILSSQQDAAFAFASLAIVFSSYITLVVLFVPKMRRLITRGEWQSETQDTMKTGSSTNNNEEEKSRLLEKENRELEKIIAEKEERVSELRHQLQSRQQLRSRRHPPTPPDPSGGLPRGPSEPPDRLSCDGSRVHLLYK
T1 sequence (O88871 41-940 partner): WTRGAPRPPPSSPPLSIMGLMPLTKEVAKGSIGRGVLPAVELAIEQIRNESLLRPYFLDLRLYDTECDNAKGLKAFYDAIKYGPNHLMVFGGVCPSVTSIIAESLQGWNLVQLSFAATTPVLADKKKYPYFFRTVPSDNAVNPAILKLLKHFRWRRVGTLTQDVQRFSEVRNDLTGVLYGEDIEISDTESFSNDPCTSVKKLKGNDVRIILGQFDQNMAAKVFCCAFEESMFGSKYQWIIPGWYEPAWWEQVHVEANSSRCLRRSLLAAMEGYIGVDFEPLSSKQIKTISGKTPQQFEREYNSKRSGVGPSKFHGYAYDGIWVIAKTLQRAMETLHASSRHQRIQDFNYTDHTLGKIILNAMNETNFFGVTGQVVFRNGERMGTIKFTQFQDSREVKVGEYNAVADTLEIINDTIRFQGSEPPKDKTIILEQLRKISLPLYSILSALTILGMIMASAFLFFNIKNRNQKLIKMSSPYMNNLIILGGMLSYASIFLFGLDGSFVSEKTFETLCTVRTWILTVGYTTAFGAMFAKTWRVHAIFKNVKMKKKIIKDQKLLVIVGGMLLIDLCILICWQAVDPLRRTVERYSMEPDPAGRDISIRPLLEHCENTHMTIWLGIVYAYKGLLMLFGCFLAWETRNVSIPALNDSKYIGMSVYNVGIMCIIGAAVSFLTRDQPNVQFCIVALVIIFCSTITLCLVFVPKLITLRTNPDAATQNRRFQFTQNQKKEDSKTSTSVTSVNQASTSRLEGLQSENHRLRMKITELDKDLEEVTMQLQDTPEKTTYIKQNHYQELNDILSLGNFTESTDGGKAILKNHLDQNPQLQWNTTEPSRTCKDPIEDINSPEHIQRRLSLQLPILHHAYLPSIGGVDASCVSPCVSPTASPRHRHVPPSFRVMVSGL

For orientation: IC50 means the concentration at which inhibition is half-maximal. Read a low IC50 as greater potency in that assay. Consider `Cl.NC[C@H](CC(=O)O)c1ccc(Cl)c(OCc2ccncc2)c1` [Example 68, (3R)-4-Amino-3-[4-chloro-3-(4-pyridylmethoxy)phenyl]butanoic acid hydrochloride], for which, on GABAB receptor [1], the “GABAB receptor agonist or partial agonist activity” value is “agonist or partial agonist activity”. The same molecule returned a half-maximal inhibitory concentration (IC50) at GABAB receptor [2] of less than 25 µM.
